# Experimental data taken from publication PMC12431657, “Discovery and mechanistic insights of dibenzoylmethane as a broad spectrum inhibitor of coronavirus” (PLOS Pathogens, 2025).
# Counter-ions that a name gives are not always drawn.
# Columns and labels:
# HCoV-OC43 = system: HCoV-OC43; parameters: species or system RD; HTS, protection from HCoV-OC43 induced cell death, luminescent cell viability (CellCounting-Lite 2.0), inhibition rate; details: 24 h, 10 µM; inhibitor
# HCoV-229E = system: HCoV-229E; parameters: species or system Huh-7; HTS, protection from HCoV-229E induced cell death, luminescent cell viability (CellCounting-Lite 2.0), inhibition rate; details: 24 h, 10 µM; inhibitor
SMILES,OC43 Inhibition rate (HCoV-OC43),229E Inhibition rate (HCoV-229E)
O=c1cc(-c2ccc(O)cc2)oc2c([C@@H]3O[C@H](CO)[C@@H](O)[C@H](O)[C@H]3O)c(O)cc(O)c12 [Vitexin],0%,10.4%
CC1=C2C(=CO[C@H](C)[C@H]2C)C(O)=C(C(=O)O)C1=O [Citrinin],-8.1%,12%
CC[C@@]1(O)C(=O)OCc2c1cc1n(c2=O)Cc2cc3cc(O)ccc3nc2-1 [(S)-10-Hydroxycamptothecin],-0.8,18.7
CC(C)CCC(=O)c1ccoc1 [Perilla ketone],2.5%,9.1%
C=C(C)c1cc2cc(C(C)=O)c(O)cc2o1 [Euparin],4.4%,14.2%
O=C1C=C2C=C[C@@H]3C[C@@]2(O1)[C@H]1CCCCN31 [(-)-Securinine],38.4%,43%
C=C[C@@H](O)C#CC#C[C@@H](O)/C=C\CCCCCCC [Falcarindiol],-0.3%,34%
COc1c2c3c4c(c(OC)c(=O)c5c(O)cc(OC)c(c6c(OC)cc(O)c(c1=O)c63)c54)[C@@H](C(C)=O)[C@@](C)(O)C2 [Hypocrellin A],-1.7%,4.6%
CC[C@@H]1/C=C(\C)C[C@H](C)C[C@H](OC)[C@H]2O[C@@](O)(C(=O)C(=O)N3CCCC[C@H]3C(=O)O[C@H](/C(C)=C/[C@@H]3CC[C@@H](O)[C@H](OC)C3)[C@H](C)[C@@H](O)CC1=O)[C@H](C)C[C@@H]2OC [Ascomycin],12.5,17.9
C[C@H]1CC[C@@H]2[C@@H](C)[C@H]3[C@H](C[C@H]4[C@@H]5CC=C6C[C@@H](O[C@@H]7O[C@H](CO)[C@H](O)[C@H](O[C@@H]8O[C@H](CO)[C@@H](O)[C@H](O)[C@H]8O)[C@H]7O[C@@H]7O[C@@H](C)[C@H](O)[C@@H](O)[C@H]7O)CC[C@]6(C)[C@H]5CC[C@]34C)N2C1 [α-Solanine],23.1%,9.3%
CC(C)[C@H]1OC(=O)[C@H](Cc2ccccc2)N(C)C(=O)[C@@H](C(C)C)OC(=O)[C@H](Cc2ccccc2)N(C)C(=O)[C@@H](C(C)C)OC(=O)[C@H](Cc2ccccc2)N(C)C1=O [Beauvericin],-1.9,24.3
CO[C@H]1CC=C2CCN3CCC4=C(CC(=O)OC4)[C@]23C1 [Dihydro-β-erythroidine (hydrobromide)],-0.7%,0%
CCc1c(Cl)c(O)c(Cl)c(O)c1C(=O)O[C@H]1[C@H](O)[C@H](OC)[C@H](OC/C2=C\C=C\C[C@H](O)/C(C)=C/[C@H](CC)[C@@H](O[C@@H]3OC(C)(C)[C@@H](OC(=O)C(C)C)[C@H](O)[C@@H]3O)/C(C)=C/C(C)=C/C[C@@H]([C@@H](C)O)OC2=O)O[C@@H]1C [Fidaxomicin],15,27.3
C=C[C@]12CN(C)[C@@H]3[C@H]4CO[C@H](C[C@H]41)[C@]1(C(=O)Nc4ccccc41)[C@@H]32 [Gelsemine],-0.3%,21.7%
C[C@@H]1O[C@@H](O[C@@H]2C=C3CC[C@@H]4[C@H](CC[C@]5(C)[C@@H](c6ccc(=O)oc6)CC[C@]45O)[C@@]3(C)CC2)[C@H](O)[C@H](O)[C@H]1O [Proscillaridin A],-0.6%,21.1%
N[C@H](C(=O)O)c1cc(O)no1 [Ibotenic acid],3.8%,11.4%
O=C1C=C2C=C[C@@H]3C[C@@]2(O1)[C@@H]1CCCCN31 [Allosecurinine],19.8%,21.3%
N#C[C@@H](O[C@@H]1O[C@H](CO[C@@H]2O[C@H](CO)[C@@H](O)[C@H](O)[C@H]2O)[C@@H](O)[C@H](O)[C@H]1O)c1ccccc1 [Neoamygdalin],-0.4%,63.2%
CC1=C2C(=O)[C@H]3[C@@H](CC=C4C[C@@H](O)CC[C@@]43C)[C@@H]2CC[C@]12O[C@@H]1C[C@H](C)CN[C@H]1[C@H]2C [Jervine],-0.3%,3.8%
O=C1C=C2C(=CCOC2O)O1 (stereo not drawn) [Patulin],-3.1%,3.7%
CC[C@H]1CN2CCc3cc(OC)c(OC)cc3[C@@H]2C[C@@H]1C[C@H]1NCCc2cc(O)c(OC)cc21 [Cephaeline (dihydrochloride)],7.6%,17.7%

SMILES,OC43 Inhibition rate (HCoV-OC43),229E Inhibition rate (HCoV-229E)
CC(=O)C1=C(O)[C@@H]2[C@H]3c4c[nH]c5cccc(c45)C[C@H]3C(C)(C)N2C1=O [Cyclopiazonic acid],0%,0%
C[C@H]1CC[C@@H]2N(C1)C[C@H]1[C@@H]3C[C@H]4[C@@H](CC(=O)[C@H]5C[C@H](O)CC[C@@]54C)[C@@H]3CC[C@H]1[C@]2(C)O [Yubeinine],0%,8.8%
Cc1nccc2c1[nH]c1ccccc12 [Harmane],0.2%,0%
CC(C)C1=CC(=O)[C@@](C)([C@H]2[C@H](O)C[C@@]3(C)[C@@H]4CC=C5[C@@H](CC[C@@H](O[C@@H]6OC[C@@H](O)[C@H](O)[C@H]6O[C@@H]6O[C@@H](C)[C@H](O)[C@@H](O)[C@H]6O)C5(C)C)[C@]4(C)C(=O)C[C@]23C)O1 [Picfeltarraenin IA],-0.3%,0%
CC(=O)O[C@H]1[C@H]2O[C@]23[C@@H]2CC[C@]4(O)C[C@@H](O)CC[C@]4(C)[C@H]2CC[C@]3(C)[C@H]1c1ccc(=O)oc1 [Cinobufotalin],11.4%,9.3%
C[C@]12CC[C@H](O)C[C@H]1CC[C@@H]1[C@@H]2CC[C@]2(C)[C@@H](c3ccc(=O)oc3)CC[C@]12O [Bufalin],-7.6%,19.3%
C/C=C\c1cc(OC)c(OC)cc1OC [Beta-asarone],0.1%,28.9%
CN1CCc2cc3c(cc2[C@H]1[C@@H]1OC(=O)c2c1ccc1c2OCO1)OCO3 [Bicuculline],-0.3%,0%
C/C=C/c1cc(OC)c(OC)cc1OC [alpha-Asarone],1.2%,14.4%
N#C[C@H](O[C@@H]1O[C@H](CO[C@@H]2O[C@H](CO)[C@@H](O)[C@H](O)[C@H]2O)[C@@H](O)[C@H](O)[C@H]1O)c1ccccc1 [Amygdalin],0.1%,20.7%
C[C@H]1CC[C@@H]2N(C1)C[C@H]1[C@@H]3C[C@H]4[C@@H](CC(=O)[C@H]5C[C@@H](O)CC[C@@]54C)[C@@H]3CC[C@H]1[C@]2(C)O [Sipeimine],-1%,43.3%
COc1cc2c(c(OC)c1OC)-c1ccc(OC)c(=O)cc1[C@@H](NC(C)=O)CC2 [Colchicine],-3.5,13.9
CN[C@H]1[C@H](O)[C@H](O[C@@H]2[C@@H](O)[C@H](O[C@H]3O[C@H](C(C)O)[C@@H](O)[C@H](O)[C@H]3N)[C@@H](N)C[C@H]2N)OC[C@@]1(C)O (stereo partly drawn) [G-418 (disulfate)],4.1%,29.4%
CCC(=O)O[C@@H]1CC(=O)O[C@H](C)C/C=C/C=C/[C@H](O)[C@H](C)C[C@H](CC=O)[C@H](O[C@@H]2O[C@H](C)[C@@H](O[C@H]3C[C@@](C)(O)[C@@H](OC(=O)CC)[C@H](C)O3)[C@H](N(C)C)[C@H]2O)[C@H]1OC [Midecamycin],-1.1,12.9
CN1C(=O)[C@]23CC4=CC=C[C@H](O)[C@H]4N2C(=O)[C@@]1(CO)SS3 [Gliotoxin],-0.7%,0.7%
CC1=C2[C@H]3OC(=O)[C@@H](C)[C@@H]3CC[C@@]2(C)C=CC1=O [Santonin],-0.5%,22.7%
COc1cc(CNC(=O)CCCCCCC(C)C)ccc1O [Dihydrocapsaicin],7.9,7.8
C[C@H]1CCC2N(C1)C[C@H]1C3CC4[C@@H](CC(=O)C5C[C@@H](O)CC[C@@]54C)C3CCC1[C@]2(C)O (stereo partly drawn) [Peiminine],1%,21.8%
COc1ccc2c(c1OC)C(=O)O[C@@H]2[C@H]1c2cc3c(cc2CCN1C)OCO3 [Hydrastine],-0.2%,28.1%
C=C(C)[C@H]1CN[C@H](C(=O)O)[C@H]1CC(=O)O [Kainic acid],2.1%,14.3%
CCCCc1ccc(C(=O)O)nc1 [Fusaric acid],0.1%,12.7%
